Reference: EP3284739A1, “SUBSTITUTED (HET) ARYL COMPOUNDS AS PESTICIDES” (Bayer CropScience Aktiengesellschaft, priority 2017, dated 2018)
Read-outs that look alike come from different tables or passages of the source.

Legend:
Phaedon cochleariae = Phaedon cochleariae spray test (Chinese cabbage leaf discs, larvae); format: in vivo; details: foliar, 168 h, read-out: Wirkung
Text: (§1) Zur Herstellung einer zweckmäßigen Wirkstoffzubereitung löst man 1 Gewichtsteil Wirkstoff mit den angegebenen Gewichtsteilen Lösungsmittel und füllt mit Wasser, welches eine Emulgatorkonzentration von 1000 ppm enthält, bis zum Erreichen der gewünschten Konzentration auf. Zur Herstellung weiterer Testkonzentrationen wird mit emulgatorhaltigem Wasser verdünnt.
Chinakohlblattscheiben (Brassica pekinensis) werden mit einer Wirkstoffzubereitung der gewünschten Konzentration gespritzt und nach dem Abtrocknen mit Larven des Meerrettichblattkäfers (Phaedon cochleariae) besetzt.
Nach 7 Tagen wird die Wirkung in % bestimmt. Dabei bedeutet 100 %, dass alle Käferlarven abgetötet wurden; 0 % bedeutet, dass keine Käferlarven abgetötet wurden.

Spodoptera frugiperda = Spodoptera frugiperda spray test (maize leaf discs, caterpillars); format: in vivo; details: foliar, 168 h, Aufwandmenge 500g/ha, after 7 days, read-out: Wirkung
Text: as §1
Maisblattscheiben (Zea mays) werden mit einer Wirkstoffzubereitung der gewünschten Konzentration gespritzt und nach dem Abtrocknen mit Raupen des Heerwurms (Spodoptera frugiperda) besetzt.
Nach 7 Tagen wird die Wirkung in % bestimmt. Dabei bedeutet 100 %, dass alle Raupen abgetötet wurden; 0 % bedeutet, dass keine Raupe abgetötet wurde.

[1] = logP by reversed-phase HPLC (LC-MS), neutral range; format: physicochemical; details: c18 hplc, ammonium bicarbonate/acetonitrile; pH 7.8, 0,001 molar aqueous Ammoniumhydrogencarbonat / Acetonitril, C 18, 55°C
Procedure: (§2) Die Messung der logP Werte erfolgt gemäß EEC Directive 79/831 Annex V.A8 durch HPLC (High Performance Liquid Chromatography) an einer Phasenumkehrsäule (C 18). Temperatur: 55°C. Die Bestimmung mit der LC-MS im sauren Bereich erfolgt bei pH 2,7 mit 0,1 % wässriger Ameisensäure und Acetonitril (enthält 0,1% Ameisensäure) als Eluenten; linearer Gradient von 10% Acetonitril bis 95% Acetonitril. In der Tabelle logP (HCOOH) genannt.
Die Bestimmung mit der LC-MS im neutralen Bereich erfolgt bei pH 7.8 mit 0,001 molarer wässriger Ammoniumhydrogencarbonat-Lösung und Acetonitril als Eluenten; linearer Gradient von 10 % Acetonitril bis 95 % Acetonitril. In der Tabelle logP (neutral) genannt.
(§3) Die Eichung erfolgt mit unverzweigten Alkan-2-onen (mit 3 bis 16 Kohlenstoffatomen), deren logP-Werte bekannt sind (Bestimmung der logP-Werte anhand der Retentionszeiten durch lineare Interpolation zwischen zwei aufeinander folgenden Alkanonen).

Ctenocephalides felis [2] = test: Ctenocephalides felis oral test (feeding on treated citrated cattle blood); format: in vivo; details: 48 h, Aufwandmenge 100ppm, after 2 days, read-out: Wirkung (Abtötung)
Procedure: Zwecks Herstellung einer zweckmäßigen Wirkstoffzubereitung vermischt man 10 mg Wirkstoff mit 0,5 ml Dimethylsulfoxid. Durch Verdünnen mit citriertem Rinderblut erhält man die gewünschte Konzentration.
Ca. 20 nüchterne adulte Katzenflöhe (Ctenocephalides felis) werden in eine Kammer eingesetzt, die oben und unten mit Gaze verschlossen ist. Auf die Kammer wird ein Metallzylinder gestellt, dessen Unterseite mit Parafilm verschlossen ist. Der Zylinder enthält die Blut-Wirkstoffzubereitung, die von den Flöhen durch die Parafilmmembran aufgenommen werden kann.
Nach 2 Tagen wird die Abtötung in % bestimmt. Dabei bedeutet 100 %, dass alle Flöhe abgetötet wurden; 0 % bedeutet, dass keiner der Flöhe abgetötet wurde.

Musca domestica = Musca domestica test (adult flies, treated sugar sponge); format: in vivo; details: 48 h, read-out: Wirkung (Abtötung)
Procedure: (§4) Zur Herstellung einer zweckmäßigen Wirkstoffzubereitung vermischt man 10 mg Wirkstoff mit 0,5 ml Dimethylsulfoxid und verdünnt das Konzentrat mit Wasser auf die gewünschte Konzentration.
Gefäße, die einen Schwamm enthalten, der mit Zuckerlösung und der Wirkstoffzubereitung der gewünschten Konzentration behandelt wurde, werden mit 10 adulten Stubenfliegen (Musca domestica) besetzt.
Nach 2 Tagen wird die Abtötung in % bestimmt. Dabei bedeutet 100 %, dass alle Fliegen abgetötet wurden; 0 % bedeutet, dass keine der Fliegen abgetötet wurde.

Lucilia cuprina = Lucilia cuprina test (L1 larvae on treated minced horse meat); format: in vivo; details: 48 h, Aufwandmenge 100ppm, after 2 days, read-out: Wirkung (Abtötung)
Procedure: as §4
Ca. 20 L1-Larven der Australischen Schafgoldfliege (Lucilia cuprina) werden in ein Testgefäß überführt, welches gehacktes Pferdefleisch und die Wirkstoffzubereitung der gewünschten Konzentration enthält.
Nach 2 Tagen wird die Abtötung in % bestimmt. Dabei bedeutet 100 %, dass alle Larven abgetötet wurden; 0 % bedeutet, dass keine Larven abgetötet wurden.

Tetranychus urticae = Tetranychus urticae spray test, OP-resistant (bean leaf discs); format: in vivo; details: foliar, 144 h, read-out: Wirkung
Text: as §1
Bohnenblattscheiben (Phaseolus vulgaris), die von allen Stadien der Gemeinen Spinnmilbe (Tetranychus urticae) befallen sind, werden mit einer Wirkstoffzubereitung der gewünschten Konzentration gespritzt.
Nach 6 Tagen wird die Wirkung in % bestimmt. Dabei bedeutet 100 %, dass alle Spinnmilben abgetötet wurden; 0 % bedeutet, dass keine Spinnmilben abgetötet wurden.

Myzus persicae = Myzus persicae spray test (Chinese cabbage leaf discs); format: in vivo; details: foliar, 144 h, Aufwandmenge 500g/ha, after 6 days, read-out: Wirkung
Text: as §1
Chinakohlblattscheiben (Brassica pekinensis), die von allen Stadien der Grünen Pfirsichblattlaus (Myzus persicae) befallen sind, werden mit einer Wirkstoffzubereitung der gewünschten Konzentration gespritzt.
Nach 6 Tagen wird die Wirkung in % bestimmt. Dabei bedeutet 100 %, dass alle Blattläuse abgetötet wurden; 0 % bedeutet, dass keine Blattläuse abgetötet wurden.

[3] = logP by reversed-phase HPLC (LC-MS), acidic range; format: physicochemical; details: c18 hplc, formic acid/acetonitrile; pH 2,7, 0,1 % aqueous Ameisensäure / Acetonitril, C 18, 55°C; read-out: logP (HCOOH)
Procedure: as §2, §3

Ctenocephalides felis [4] = test: Ctenocephalides felis in-vitro contact test with adult cat fleas (coated glass tubes); format: in vivo; details: 48 h, read-out: Wirkung
Procedure: Für die Beschichtung der Teströhrchen werden zunächst 9 mg Wirkstoff in 1 ml Aceton p.a. gelöst und anschließend mit Aceton p.a. auf die gewünschte Konzentration verdünnt. 250 µl der Lösung werden durch Drehen und Kippen auf einem Rotationsschüttler (2 h Schaukelrotation bei 30 rpm) homogen auf den Innenwänden und dem Boden eines 25ml Glasröhrchens verteilt. Bei 900 ppm Wirkstofflösung und 44,7 cm^2 Innenoberfläche wird bei homogener Verteilung eine Flächendosis von 5 µg/cm^2 erreicht.
Nach Abdampfen des Lösungsmittels werden die Gläschen mit 5-10 adulten Katzenflöhen (Ctenocephalides felis) besetzt, mit einem gelochten Kunststoffdeckel verschlossen und liegend bei Raumtemperatur und Umgebungsfeuchte inkubiert. Nach 48 h wird die Wirksamkeit bestimmt. Hierzu werden die Gläschen aufrecht gestellt und die Flöhe auf den Boden des Gläschens geklopft. Flöhe, die unbeweglich auf dem Boden verbleiben oder sich unkoordiniert bewegen, gelten als tot bzw. angeschlagen.
Eine Substanz zeigt gute Wirkung gegen Ctenocephalides felis, wenn in diesem Test bei einer Aufwandmenge von 5 µg/cm^2 mindestens 80% Wirkung erzielt wurde. Dabei bedeutet 100% Wirkung, dass alle Flöhe angeschlagen oder tot waren. 0% Wirkung bedeutet, dass keine Flöhe geschädigt wurden.

Meloidogyne incognita = Meloidogyne incognita test (gall formation on lettuce roots); format: in vivo; details: 336 h, Aufwandmenge 20ppm, after 14 days, read-out: Wirkung (nematizide Wirkung anhand der Gallenbildung)
Text: Zur Herstellung einer zweckmäßigen Wirkstoffzubereitung vermischt man 1 Gewichtsteil Wirkstoff mit der angegebenen Menge Lösungsmittel und verdünnt das Konzentrat mit Wasser auf die gewünschte Konzentration.
Gefäße werden mit Sand, Wirkstofflösung, einer Ei-Larven-Suspension des südlichen Wurzelgallenälchens (Meloidogyne incognita) und Salatsamen gefüllt. Die Salatsamen keimen und die Pflänzchen entwickeln sich. An den Wurzeln entwickeln sich die Gallen.
Nach 14 Tagen wird die nematizide Wirkung anhand der Gallenbildung in % bestimmt. Dabei bedeutet 100 %, dass keine Gallen gefunden wurden; 0 % bedeutet, dass die Zahl der Gallen an den behandelten Pflanzen der unbehandelten Kontrolle entspricht.

Structure (SMILES)	chromatographic logP [1]	mortality at 500 g/ha (Phaedon cochleariae)	mortality at 500 g/ha (Spodoptera frugiperda)	mortality at 100 µg/mL (Ctenocephalides felis [2])	also measured
O=C(Nc1cc(-c2ccc(OC(F)(F)F)cc2)cc(NC(=O)C2(C(F)(F)F)CC2)n1)C1CC1 [I-006]	–	83%	100%	100%	mortality at 100 µg/mL (Musca domestica): 90%
O=C(Nc1cc(-c2ccc(C(F)(F)C(F)(F)F)cc2)cc(NC(=O)C2CC2)n1)C1CC1 [I-036]	–	83%	100%	100%	mortality at 100 µg/mL (Lucilia cuprina): 95%; mortality at 500 g/ha (Tetranychus urticae): 90%
FC(F)(F)Oc1ccc(-c2cc(NC(=S)C3CC3)nc(NC(=S)C3CC3)c2)cc1 [I-032, N,N'-{4-[4-(Trifluormethoxy)phenyl]pyridin-2,6-diyl}dicyclopropancarbothioamid]	4.98	–	100%	–	–
O=C(Nc1cc(-c2ccc(OC(F)(F)F)cc2)cc(NC(=O)C2(F)CC2)n1)C1CC1 [I-012, N-{6-[(Cyclopropylcarbonyl)amino]-4-[4-(trifluormethoxy)phenyl]pyridin-2-yl}-1-fluorcyclopropancarboxamid]	3.88	100%	100%	95%	–
O=C(Nc1cc(-c2ccc(OC(F)(F)F)cc2)cc(NC(=O)C2(c3ccccc3)CC2)n1)C1CC1 [I-008]	–	–	–	–	mortality at 500 g/ha (Myzus persicae): 90%
O=C(Nc1cc(-c2ccc(OC(F)(F)F)cc2)cc(NC(=O)C2(C3CC3)CC2)n1)C1CC1 [I-014]	–	100%	100%	100%	mortality at 100 µg/mL (Lucilia cuprina): 100%; mortality at 100 µg/mL (Musca domestica): 80%
CC(C)C(=O)Nc1cc(NC(=O)C2CC2)cc(-c2ccc(C(F)(F)C(F)(F)F)c(F)c2)c1 [I-060, N-[3'-Fluor-5-(isobutyrylamino)-4'-(pentafluorethyl)biphenyl-3-yl]cyclopropancarboxamid]	–	100%	100%	–	chromatographic logP [3]: 3.7
CC1=CC1C(=O)Nc1cc(-c2ccc(OC(F)(F)F)cc2)cc(NC(=O)C2CC2)n1 (stereo not shown) [I-034]	–	–	–	–	mortality at 500 g/ha (Tetranychus urticae; Aufwandmenge 500g/ha, after 6 days, OP-resistent): 90%
CC(C)(C)C(=O)Nc1cc(-c2ccc(OC(F)(F)F)cc2)cc(NC(=O)C2CC2)n1 [I-017]	–	100%	100%	100%	mortality at 500 g/ha (Ctenocephalides felis [4]): 100%
Nc1cc(Br)c(Cl)c(N)n1 [4-Brom-3-chlorpyridin-2,6-diamin]	1.46	–	–	–	–
O=C(Nc1cc(-c2ccc(OC(F)(F)F)cc2)cc(NC(=O)C2CC2)n1)C1CC1 [I-001, N,N'-{4-[4-(Trifluormethoxy)phenyl]pyridin-2,6-diyl}dicyclopropancarboxamid]	–	100%	100%	100%	mortality at 100 µg/mL (Lucilia cuprina): 95%; inhibition at 20 µg/mL (Meloidogyne incognita): 90%
CC(C)(F)C(=O)Nc1cc(-c2ccc(OC(F)(F)F)cc2)cc(NC(=O)C2CC2)n1 [I-015]	–	100%	100%	100%	mortality at 500 g/ha (Tetranychus urticae): 90%

More lines, main results first:

chromatographic logP [1]	Structure (SMILES)	mortality at 500 g/ha (Phaedon cochleariae)	mortality at 500 g/ha (Spodoptera frugiperda)	mortality at 100 µg/mL (Ctenocephalides felis [2])	also measured
4.06	O=C(Nc1cc(-c2ccc(C(F)(F)C(F)(F)F)c(F)c2)cc(NC(=O)C2CC2)n1)C1CC1 [I-035, N,N'-{4-[3-Fluor-4-(pentafluorethyl)phenyl]pyridin-2,6-diyl}dicyclopropancarboxamid]	100%	100%	–	–
4.44	O=C(Nc1cc(-c2ccc(OC(F)(F)F)cc2)cc(NC(=S)C2CC2)n1)C1CC1 [I-033, N-{6-[(Cyclopropylcarbonothioyl)amino]-4-[4-(trifluormethoxy)phenyl]pyridin-2-yl}cyclopropancarboxamid]	–	100%	–	–
0.89	CC1(C)OB(c2cc(NC(=O)C3CC3)nc(NC(=O)C3CC3)c2)OC1(C)C [N,N'-[4-(4,4,5,5-Tetramethyl-1,3,2-dioxaborolan-2-yl)pyridin-2,6-diyl]dicyclopropancarboxamid]	–	–	–	–
3.73	COC(=O)N(C(=O)C1CC1)c1cc(-c2ccc(OC(F)(F)F)cc2)cc(N(C(=O)OC)C(=O)C2CC2)n1 [I-037, Dimethyl-{4-[4-(trifluormethoxy)phenyl]pyridin-2,6-diyl}bis[(cyclopropylcarbonyl)carbamat]]	–	–	–	mortality at 500 g/ha (Phaedon cochleariae; Aufwandmenge 500g/ha, after 7 days): 100%
1.61	Nc1cc(Br)cc(NC(=O)C2CC2)n1 [N-(6-Amino-4-brompyridin-2-yl)cyclopropancarboxamid]	–	–	–	–
2.35	O=C(Nc1cc(Br)cc(NC(=O)C2CC2)n1)C1CC1 [N,N'-(4-Brompyridin-2,6-diyl)dicyclopropancarboxamid]	–	–	–	–
